Laboratory results: patent publication US20260083721A1, “7-CYANO-8-HYDROXYQUINOLINE DERIVATIVE, PREPARATION METHOD THEREFOR AND MEDICAL USE THEREOF” (Jiangsu Yahong Meditech Co., Ltd., priority 2022, published 2026)
In brackets after ≈: the same amount, converted by molar mass.

Columns and labels:
Type in all cases: cell-based
[1] = test system: Staphylococcus aureus ATCC29213; assay: MIC by broth microdilution, S. aureus ATCC 29213; details: quality control strain, CAMHB, 35±2° C., 20 hours, drug concentration range 128 mg/L to 0.06 mg/L, read-out: inhibitory MIC value, Staphylococcus aureus ATCC29213
Text: (§1) The test bacteria were 2 strains of carbapenem-resistant Escherichia coli (18-W09-093 and 18-W18-070), 2 strains of carbapenem-resistant Acinetobacter baumannii (18-W15-036 and 18-W13-081), 1 strain of methicillin-resistant Staphylococcus aureus (19-W03-012) and 1 strain of methicillin-sensitive Staphylococcus aureus (19-W01-012), isolated clinically, with duplicate strains isolated from the same patient being excluded. Besides, there were 3 quality control strains, namely Escherichia co/i ATCC 25922, Acinetobacter baumannii ATCC 19606, and Staphylococcus aureus ATCC 29213. The above strains were all provided by Shanghai GenoMatrix Medical Laboratory Co., Ltd.
(§2) The MIC of the compound of the present invention on clinically isolated strains was assayed by the broth microdilution method according to the relevant documents from the Clinical and Laboratory Standards Institute (CLSI) of United States. • 3.1 Preparation of antimicrobial drugs: the compounds of the present invention were all dissolved with DMSO. The drug concentration ranged from 128 mg/L to 0.06 mg/L. • 3.2 Culture medium: cation adjusted Mueller-Hinton broth (CAMHB) was used. • 3.3 Inoculation amount of bacteria: the isolated pure culture of test bacteria cultured overnight was adjusted to 0.5 McFarland turbidity by direct colony suspension and diluted 100 folds, and the final inoculation amount was 10^5 CFU/mL. • 3.4 Culture conditions: the bacteria were cultured in air at 35±2° C. for 20 hours.
(§3) The results of the drug sensitivity test were interpretated according to the standards of CLSI M100-ED29:2019.
(§4) The statistical analysis of the results of the drug sensitivity test was done by using WHONET version 5.6 software.

[2] = test system: Acinetobacter baumannii ATCC19606; assay: MIC by broth microdilution, A. baumannii ATCC 19606; details: quality control strain, CAMHB, 35±2° C., 20 hours, drug concentration range 128 mg/L to 0.06 mg/L, read-out: inhibitory MIC value, Acinetobacter baumannii ATCC19606
Text: as §1, §2, §3, §4

[3] = test system: carbapenem-resistant Escherichia coli 18-W09-093; assay: MIC by broth microdilution, carbapenem-resistant E. coli 18-W09-093; details: carbapenem-resistant clinical isolate, CAMHB, 35±2° C., 20 hours, drug concentration range 128 mg/L to 0.06 mg/L, read-out: inhibitory MIC value, Escherichia coli 18-W09-093
Text: as §1, §2, §3, §4

[4] = test system: carbapenem-resistant Acinetobacter baumannii 18-W15-036; assay: MIC by broth microdilution, carbapenem-resistant A. baumannii 18-W15-036; details: carbapenem-resistant clinical isolate, CAMHB, 35±2° C., 20 hours, drug concentration range 128 mg/L to 0.06 mg/L, read-out: inhibitory MIC value, Acinetobacter baumannii 18-W15-036
Text: as §1, §2, §3, §4

[5] = test system: carbapenem-resistant Escherichia coli 18-W18-070; assay: MIC by broth microdilution, carbapenem-resistant E. coli 18-W18-070; details: carbapenem-resistant clinical isolate, CAMHB, 35±2° C., 20 hours, drug concentration range 128 mg/L to 0.06 mg/L, read-out: inhibitory MIC value, Escherichia coli 18-W18-070
Text: as §1, §2, §3, §4

[6] = test system: methicillin-resistant Staphylococcus aureus 19-W03-012; assay: MIC by broth microdilution, methicillin-resistant S. aureus 19-W03-012; details: methicillin-resistant clinical isolate, CAMHB, 35±2° C., 20 hours, drug concentration range 128 mg/L to 0.06 mg/L, read-out: inhibitory MIC value, Staphylococcus aureus 19-W03-012
Text: as §1, §2, §3, §4

[7] = test system: Escherichia coli ATCC25922; assay: MIC by broth microdilution, E. coli ATCC 25922; details: quality control strain, CAMHB, 35±2° C., 20 hours, drug concentration range 128 mg/L to 0.06 mg/L, read-out: inhibitory MIC value, Escherichia coli ATCC25922
Text: as §1, §2, §3, §4

[8] = test system: carbapenem-resistant Acinetobacter baumannii 18-W13-081; assay: MIC by broth microdilution, carbapenem-resistant A. baumannii 18-W13-081; details: carbapenem-resistant clinical isolate, CAMHB, 35±2° C., 20 hours, drug concentration range 128 mg/L to 0.06 mg/L, read-out: inhibitory MIC value, Acinetobacter baumannii 18-W13-081
Text: as §1, §2, §3, §4

[9] = test system: methicillin-sensitive Staphylococcus aureus 19-W01-012; assay: MIC by broth microdilution, methicillin-sensitive S. aureus 19-W01-012; details: methicillin-sensitive clinical isolate, CAMHB, 35±2° C., 20 hours, drug concentration range 128 mg/L to 0.06 mg/L, read-out: inhibitory MIC value, Staphylococcus aureus 19-W01-012
Text: as §1, §2, §3, §4

| Structure (SMILES) | MIC [1] [µg/mL] | MIC [2] [µg/mL] | MIC [3] [µg/mL] | MIC [4] [µg/mL] | MIC [5] [µg/mL] | MIC [6] [µg/mL] | MIC [7] [µg/mL] | MIC [8] [µg/mL] | MIC [9] [µg/mL] |
| --- | --- | --- | --- | --- | --- | --- | --- | --- | --- |
| N#Cc1cc(Br)c2cccnc2c1O [Compound 1, 5-bromo-7-cyano-8-hydroxyquinoline] | 4 (≈ 16.1 µM) | 4 (≈ 16.1 µM) | 32 (≈ 128 µM) | 16 (≈ 64.2 µM) | 32 (≈ 128 µM) | 4 (≈ 16.1 µM) | 8 (≈ 32.1 µM) | 4 (≈ 16.1 µM) | 4 (≈ 16.1 µM) |
| N#Cc1cc(C(F)(F)F)c2cccnc2c1O [Compound 2, 5-trifluoromethyl-7-cyano-8-hydroxyquinoline] | 8 (≈ 33.6 µM) | 16 (≈ 67.2 µM) | 64 (≈ 269 µM) | 64 (≈ 269 µM) | 64 (≈ 269 µM) | 4 (≈ 16.8 µM) | 32 (≈ 134 µM) | 32 (≈ 134 µM) | 4 (≈ 16.8 µM) |
| Cc1ccnc2c(O)c(C#N)ccc12 [Compound 3, 4-methyl-7-cyano-8-hydroxyquinoline] | 8 (≈ 43.4 µM) | 8 (≈ 43.4 µM) | 16 (≈ 86.9 µM) | 8 (≈ 43.4 µM) | 16 (≈ 86.9 µM) | 8 (≈ 43.4 µM) | 8 (≈ 43.4 µM) | 8 (≈ 43.4 µM) | 8 (≈ 43.4 µM) |
| N#Cc1ccc2ccc(F)nc2c1O [Compound 4, 2-fluoro-7-cyano-8-hydroxyquinoline] | 16 (≈ 85 µM) | 4 (≈ 21.3 µM) | 16 (≈ 85 µM) | 8 (≈ 42.5 µM) | 16 (≈ 85 µM) | 16 (≈ 85 µM) | 8 (≈ 42.5 µM) | 8 (≈ 42.5 µM) | 16 (≈ 85 µM) |
| Cc1ccnc2c(O)c(C#N)cc(Cl)c12 [Compound 5, 4-methyl-5-chloro-7-cyano-8-hydroxyquinoline] | 4 (≈ 18.3 µM) | 4 (≈ 18.3 µM) | 32 (≈ 146 µM) | 8 (≈ 36.6 µM) | 16 (≈ 73.2 µM) | 2 (≈ 9.15 µM) | 8 (≈ 36.6 µM) | 2 (≈ 9.15 µM) | 4 (≈ 18.3 µM) |
| Cc1ccnc2c(O)c(C#N)cc(Br)c12 [Compound 6, 4-methyl-5-bromo-7-cyano-8-hydroxyquinoline] | 4 (≈ 15.2 µM) | 4 (≈ 15.2 µM) | 32 (≈ 122 µM) | 32 (≈ 122 µM) | 32 (≈ 122 µM) | 2 (≈ 7.6 µM) | 8 (≈ 30.4 µM) | 4 (≈ 15.2 µM) | 4 (≈ 15.2 µM) |
| N#Cc1c(Cl)c(Cl)c2cccnc2c1O [Compound 7, 5,6-dichloro-7-cyano-8-hydroxyquinoline] | 1 (≈ 4.18 µM) | 2 (≈ 8.37 µM) | > 64 | 32 (≈ 134 µM) | > 64 | 0.5 (≈ 2.09 µM) | 32 (≈ 134 µM) | 4 (≈ 16.7 µM) | 0.5 (≈ 2.09 µM) |
| N#Cc1cc(C(=O)O)c2cccnc2c1O [Compound 8, 7-cyano-8-hydroxyquinoline-5-carboxylic acid] | > 64 | > 64 | > 64 | > 64 | > 64 | > 64 | > 64 | > 64 | > 64 |
| N#Cc1cc(Cl)c2cccnc2c1O [Compound 9, 5-chloro-7-cyano-8-hydroxyquinoline] | 8 (≈ 39.1 µM) | 4 (≈ 19.5 µM) | 32 (≈ 156 µM) | 16 (≈ 78.2 µM) | 32 (≈ 156 µM) | 8 (≈ 39.1 µM) | 16 (≈ 78.2 µM) | 8 (≈ 39.1 µM) | 8 (≈ 39.1 µM) |
| Cc1cc(C#N)c(O)c2ncccc12 [Compound A, reference compound] | 4 (≈ 21.7 µM) | 4 (≈ 21.7 µM) | 8 (≈ 43.4 µM) | 8 (≈ 43.4 µM) | 16 (≈ 86.9 µM) | 4 (≈ 21.7 µM) | 8 (≈ 43.4 µM) | 4 (≈ 21.7 µM) | 4 (≈ 21.7 µM) |
